Assay results reported in patent US9868743B2, “Macrocyclic molecules as HCV entry inhibitors” (priority 2013, dated 2018).
Like-named read-outs stand apart in the source and are kept apart here.

Test system: HCV pseudoparticles, genotype 1a HCV E1 and E2 envelope (H77C isolate)
Experiment: HCV pseudoparticle infection assay (luciferase reporter, Huh7 cells)
Assay type: cell-based, HCV genotype 1a (H77C)
Conditions: Hepatitis C virus, Huh-7, 48 h
[1] = read-out: EC50 (nM) 1a (H77C), HCV pseudoparticle entry into Huh7 cells, luciferase 2 days after infection, average of duplicates
[2] = read-out: EC50 (nM) 1a (H77C), HCV pseudoparticle entry into Huh7 cells, luciferase 2 days after infection, class symbol
[3] = HCV pseudoparticle entry into Huh7 cells, luciferase 2 days after infection, class symbol, read-out: EC50 (nM) 1a (H77C)

Structure (SMILES)	EC50 [2] [nM]	other results
CC1(C)CNC(=O)c2ccc(cc2)Nc2nc(nc(OCC(F)(F)F)n2)NCc2ccc(c(Cl)c2)OCCCN(C(=O)c2ccccc2)C1 [Example 1001]	0.01 to 10	EC50 [1]: 0.864 nM
CC1(C)CNC(=O)c2ccc(cc2)Nc2nc(nc(OCC(F)(F)F)n2)NCc2ccc(c(Cl)c2)OCCCN(C(=O)Cc2ccccc2)C1 [Example 1002]	0.01 to 10	
CC1(C)CNC(=O)c2ccc(cc2)Nc2nc(nc(OCC(F)(F)F)n2)NCc2ccc(c(Cl)c2)OCCCN(C(=O)CCc2ccccc2)C1 [Example 1003]	0.01 to 10	
CC1(C)CNC(=O)c2ccc(cc2)Nc2nc(nc(OCC(F)(F)F)n2)NCc2ccc(c(Cl)c2)OCCCN(C(=O)CCCc2ccccc2)C1 [Example 1004]	0.01 to 10	
CC1(C)CNC(=O)c2ccc(cc2)Nc2nc(nc(OCC(F)(F)F)n2)NCc2ccc(c(Cl)c2)OCCCN(C(=O)/C=C/c2ccccc2)C1 [Example 1005]	0.01 to 10	EC50 [1]: 1.51 nM
CC1(C)CNC(=O)c2ccc(cc2)Nc2nc(nc(OCC(F)(F)F)n2)NCc2ccc(c(Cl)c2)OCCCN(C(=O)/C=C/c2ccoc2)C1 [Example 1006]	0.01 to 10	
CC1(C)CNC(=O)c2ccc(cc2)Nc2nc(nc(OCC(F)(F)F)n2)NCc2ccc(c(Cl)c2)OCCCN(C(=O)/C=C/c2ccco2)C1 [Example 1007]	0.01 to 10	
CC1(C)CNC(=O)c2ccc(cc2)Nc2nc(nc(OCC(F)(F)F)n2)NCc2ccc(c(Cl)c2)OCCCN(C(=O)CCC(=O)O)C1 [Example 1008]	10 to 1000	EC50 [1]: 23.9 nM
CC1(C)CNC(=O)c2ccc(cc2)Nc2nc(nc(OCC(F)(F)F)n2)NCc2ccc(c(Cl)c2)OCCCN(C(=O)CN)C1 [Example 1009]	0.01 to 10	
CC1(C)CNC(=O)c2ccc(cc2)Nc2nc(nc(OCC(F)(F)F)n2)NCc2ccc(c(Cl)c2)OCCCN(C(=O)CNC(=O)OC(C)(C)C)C1 [Example 1010]	0.01 to 10	
CC1(C)CNC(=O)c2ccc(cc2)Nc2nc(nc(OCC(F)(F)F)n2)NCc2ccc(c(Cl)c2)OCCCN(C(=O)[C@@H]2C[C@H]2c2ccccc2)C1 [Example 1011]	0.01 to 10	
CC1(C)CNC(=O)c2ccc(cc2)Nc2nc(nc(OCC(F)(F)F)n2)NCc2ccc(c(Cl)c2)OCCCN(C(=O)c2ncoc2-c2ccccc2)C1 [Example 1012]	0.01 to 10	
CC1(C)CNC(=O)c2ccc(cc2)Nc2nc(nc(OCC(F)(F)F)n2)NCc2ccc(c(Cl)c2)OCCCN(C(=O)CCc2nc3ccccc3s2)C1 [Example 1013]	0.01 to 10	
CC1(C)CNC(=O)c2ccc(cc2)Nc2nc(nc(OCC(F)(F)F)n2)NCc2ccc(c(Cl)c2)OCCCN(C(=O)CCc2ccncc2)C1 [Example 1014]	0.01 to 10	
CC1(C)CNC(=O)c2ccc(cc2)Nc2nc(nc(OCC(F)(F)F)n2)NCc2ccc(c(Cl)c2)OCCCN(C(=O)CC(C)(C)n2cccc2)C1 [Example 1015]	0.01 to 10	EC50 [1]: 0.932 nM
CC1(C)CNC(=O)c2ccc(cc2)Nc2nc(nc(OCC(F)(F)F)n2)NCc2ccc(c(Cl)c2)OCCCN(C(=O)Cc2cccnc2)C1 [Example 1016]	0.01 to 10	
CC1(C)CNC(=O)c2ccc(cc2)Nc2nc(nc(OCC(F)(F)F)n2)NCc2ccc(c(Cl)c2)OCCCN(C(=O)CCC(=O)c2ccccc2)C1 [Example 1017]	0.01 to 10	
C#CCOC(=O)N1CCCOc2ccc(cc2Cl)CNc2nc(nc(OCC(F)(F)F)n2)Nc2ccc(cc2)C(=O)NCC(C)(C)C1 [Example 2001]	0.01 to 10	

Structure (SMILES)	EC50 [2] [nM]	other results
C=COC(=O)N1CCCOc2ccc(cc2Cl)CNc2nc(nc(OCC(F)(F)F)n2)Nc2ccc(cc2)C(=O)NCC(C)(C)C1 [Example 2002]	0.01 to 10	
C=CCOC(=O)N1CCCOc2ccc(cc2Cl)CNc2nc(nc(OCC(F)(F)F)n2)Nc2ccc(cc2)C(=O)NCC(C)(C)C1 [Example 2003]	0.01 to 10	
CC(C)[C@H]1CC[C@H](C)C[C@@H]1OC(=O)N1CCCOc2ccc(cc2Cl)CNc2nc(nc(OCC(F)(F)F)n2)Nc2ccc(cc2)C(=O)NCC(C)(C)C1 [Example 2004]	0.01 to 10	
CC(C)[C@@H]1CC[C@@H](C)C[C@H]1OC(=O)N1CCCOc2ccc(cc2Cl)CNc2nc(nc(OCC(F)(F)F)n2)Nc2ccc(cc2)C(=O)NCC(C)(C)C1 [Example 2005]	0.01 to 10	EC50 [1]: 2.85 nM
CC1(C)CNC(=O)c2ccc(cc2)Nc2nc(nc(OCC(F)(F)F)n2)NCc2ccc(c(Cl)c2)OCCCN(C(=O)Oc2ccccc2)C1 [Example 2006]		EC50 [3]: 0.01 to 10 nM
COc1ccc(OC(=O)N2CCCOc3ccc(cc3Cl)CNc3nc(nc(OCC(F)(F)F)n3)Nc3ccc(cc3)C(=O)NCC(C)(C)C2)cc1 [Example 2007]		EC50 [3]: 0.01 to 10 nM
CC1(C)CNC(=O)c2ccc(cc2)Nc2nc(nc(OCC(F)(F)F)n2)NCc2ccc(c(Cl)c2)OCCCN(C(=O)Oc2ccc([N+](=O)[O-])cc2)C1 [Example 2008]		EC50 [3]: 0.01 to 10 nM
CC1(C)CNC(=O)c2ccc(cc2)Nc2nc(nc(OCC(F)(F)F)n2)NCc2ccc(c(Cl)c2)OCCCN(C(=O)Oc2cccc3ccccc23)C1 [Example 2009]		EC50 (HCV pseudoparticle entry into Huh7 cells, luciferase 2 days after infection, average of duplicates, read-out: EC50 (nM) 1a (H77C)): 1.26 nM; EC50 [3]: 0.01 to 10 nM
CC1(C)CNC(=O)c2ccc(cc2)Nc2nc(nc(OCC(F)(F)F)n2)NCc2ccc(c(Cl)c2)OCCCN(C(=O)Oc2ccc3ccccc3c2)C1 [Example 2010]		EC50 [3]: 0.01 to 10 nM
CC1(C)CNC(=O)c2ccc(cc2)Nc2nc(nc(OCc3cccnc3)n2)NCc2ccc(c(Cl)c2)OCCCN(C(=O)OCc2cccnc2)C1 [Example 2011]	10 to 1000	
CC1(C)CNC(=O)c2ccc(cc2)Nc2nc(nc(OCC(F)(F)F)n2)NCc2ccc(c(Cl)c2)OCCCN(C(=O)OCCOCc2ccccc2)C1 [Example 2013]	0.01 to 10	
Cc1oc(=O)oc1COC(=O)N1CCCOc2ccc(cc2Cl)CNc2nc(nc(OCC(F)(F)F)n2)Nc2ccc(cc2)C(=O)NCC(C)(C)C1 [Example 2014]	0.01 to 10	
Cc1oc(=O)oc1COC(=O)N1CCCOc2ccc(cc2Cl)CNc2nc(nc(OCc3ccc(C(F)(F)F)cc3)n2)Nc2ccc(cc2)C(=O)NCC(C)(C)C1 [Example 2015]	0.01 to 10	
Cc1oc(=O)oc1COC(=O)N1CCCOc2ccc(cc2Cl)CNc2nc(nc(OCc3ccc(C(C)C)cc3)n2)Nc2ccc(cc2)C(=O)NCC(C)(C)C1 [Example 2016]	0.01 to 10	EC50 [1]: 0.109 nM
CC1(C)CNC(=O)c2ccc(cc2)Nc2nc(nc(OCC(F)(F)F)n2)NCc2ccc(c(Cl)c2)OCCCN(C#N)C1 [Example 3001]	0.01 to 10	
CC1(C)CNC(=O)c2ccc(cc2)Nc2nc(nc(OCC(F)(F)F)n2)NCc2ccc(c(Cl)c2)OCCCN(S(=O)(=O)/C=C/c2ccccc2)C1 [Example 4001]	0.01 to 10	EC50 [1]: 0.555 nM
Cc1oc(=O)oc1CN1CCCOc2ccc(cc2Cl)CNc2nc(nc(OCC(F)(F)F)n2)Nc2ccc(cc2)C(=O)NCC(C)(C)C1 [Example 5001]	0.01 to 10	EC50 [1]: 7.67 nM
Cc1oc(=O)oc1CN1CCCOc2ccc(cc2Cl)CN(Cc2oc(=O)oc2C)c2nc(nc(OCC(F)(F)F)n2)Nc2ccc(cc2)C(=O)NCC(C)(C)C1 [Example 5002]	0.01 to 10	
